Publication PMC6753144, “Exploiting biofilm phenotypes for functional characterization of hypothetical genes in Enterococcus faecalis” (NPJ Biofilms and Microbiomes, 2019)

Biological target: T1, Bph-H6 (Bph, OG1RF_10435, biofilm phosphatase) (Enterococcus faecalis, UniProt A0ACD6T9Q6)
T1 construct: full length, 177 residues, C-terminal His6 tag (pET28b+, NcoI/XhoI), expressed in E. coli BL21(DE3), Ni-NTA purified
Assay: malachite green phosphate release assay
Assay type: biochemical
Conditions: 10 mM Mn2+, pH 7.5, 37 °C, 1 h, 1 µM enzyme, 100 µM substrate

T1 sequence (A0ACD6T9Q6 entry or part of it): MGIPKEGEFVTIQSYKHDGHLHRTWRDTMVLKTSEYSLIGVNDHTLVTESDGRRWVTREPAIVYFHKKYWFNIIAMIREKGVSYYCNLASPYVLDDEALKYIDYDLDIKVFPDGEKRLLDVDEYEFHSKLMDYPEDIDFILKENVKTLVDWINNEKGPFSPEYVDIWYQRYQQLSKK

Structure (SMILES)	malachite green phosphate release assay
Nc1nc2c(ncn2[C@@H]2O[C@H](COP(=O)(O)OP(=O)(O)O)[C@@H](OP(=O)(O)OP(=O)(O)O)[C@H]2O)c(=O)[nH]1 [ppGpp]	We also detected phosphatase activity against ppGpp, the second messenger
Nc1ncnc2c1ncn2[C@@H]1O[C@H](COP(=O)(O)OP(=O)(O)OP(=O)(O)O)[C@@H](O)[C@H]1O [ATP]	Bph-H6 had in vitro phosphatase activity on nucleoside triphosphate, nucleoside diphosphate, and deoxynucleoside phosphate substrates
